Assay [1] deals with T1, Nitric oxide synthase, inducible (Mus musculus, UniProt P29477).
T1 sequence (P29477 whole entry): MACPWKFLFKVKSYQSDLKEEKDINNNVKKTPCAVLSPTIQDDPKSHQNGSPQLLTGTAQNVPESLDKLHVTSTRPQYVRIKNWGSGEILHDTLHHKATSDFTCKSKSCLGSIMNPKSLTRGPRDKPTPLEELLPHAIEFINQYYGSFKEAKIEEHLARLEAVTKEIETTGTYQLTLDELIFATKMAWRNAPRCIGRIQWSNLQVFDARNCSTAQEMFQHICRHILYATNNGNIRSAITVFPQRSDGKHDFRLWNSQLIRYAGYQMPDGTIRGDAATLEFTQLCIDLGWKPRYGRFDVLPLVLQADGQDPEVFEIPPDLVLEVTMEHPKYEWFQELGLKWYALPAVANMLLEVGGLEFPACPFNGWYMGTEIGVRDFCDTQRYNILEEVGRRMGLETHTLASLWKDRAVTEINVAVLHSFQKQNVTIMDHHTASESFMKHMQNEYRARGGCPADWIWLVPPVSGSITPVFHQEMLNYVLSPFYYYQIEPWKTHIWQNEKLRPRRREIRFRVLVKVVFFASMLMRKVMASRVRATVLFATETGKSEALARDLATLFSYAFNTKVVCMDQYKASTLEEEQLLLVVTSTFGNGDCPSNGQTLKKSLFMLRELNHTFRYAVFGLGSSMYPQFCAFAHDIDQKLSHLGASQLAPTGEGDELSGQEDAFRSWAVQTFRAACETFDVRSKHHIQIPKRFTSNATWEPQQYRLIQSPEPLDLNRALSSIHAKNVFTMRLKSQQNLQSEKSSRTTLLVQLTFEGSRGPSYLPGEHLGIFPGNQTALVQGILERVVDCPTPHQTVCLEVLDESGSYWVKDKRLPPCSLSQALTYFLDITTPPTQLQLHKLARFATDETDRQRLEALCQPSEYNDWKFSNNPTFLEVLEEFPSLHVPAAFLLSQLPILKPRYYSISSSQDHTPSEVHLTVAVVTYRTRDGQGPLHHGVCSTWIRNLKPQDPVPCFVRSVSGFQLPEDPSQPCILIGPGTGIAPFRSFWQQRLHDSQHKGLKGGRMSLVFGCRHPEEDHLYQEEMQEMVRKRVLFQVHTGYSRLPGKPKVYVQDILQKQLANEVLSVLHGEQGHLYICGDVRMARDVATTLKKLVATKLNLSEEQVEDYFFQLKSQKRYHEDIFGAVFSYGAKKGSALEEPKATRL
Details: species or system Escherichia coli.

Assay [2] deals with T2, Interstitial collagenase (Homo sapiens, UniProt P03956).
T2 sequence (P03956 whole entry): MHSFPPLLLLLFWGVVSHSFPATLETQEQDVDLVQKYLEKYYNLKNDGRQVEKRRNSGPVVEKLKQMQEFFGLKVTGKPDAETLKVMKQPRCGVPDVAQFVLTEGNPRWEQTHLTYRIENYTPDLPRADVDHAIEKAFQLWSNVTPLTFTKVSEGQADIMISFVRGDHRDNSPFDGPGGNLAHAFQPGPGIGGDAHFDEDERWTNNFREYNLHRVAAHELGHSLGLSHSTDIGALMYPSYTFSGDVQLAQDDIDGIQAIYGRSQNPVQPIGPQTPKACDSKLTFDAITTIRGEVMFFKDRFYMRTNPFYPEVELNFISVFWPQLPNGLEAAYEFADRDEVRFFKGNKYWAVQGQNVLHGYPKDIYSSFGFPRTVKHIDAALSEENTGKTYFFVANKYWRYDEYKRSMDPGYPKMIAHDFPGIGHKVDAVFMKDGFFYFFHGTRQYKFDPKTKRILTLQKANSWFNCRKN
Type of assay: tissue-based, Rheumatoid synovial fibroblasts.

Assay [3] is described as follows: DRUGMATRIX: Interleukin IL-1 radioligand binding (ligand: [125I] interleukin 1beta). Type of assay: cell membranes, Membrane. The settings on record: nih3t3; Not Active = under 50% inhibition at 10 µM.
For assay [4], the target named is 5-hydroxytryptamine receptor 2B (Homo sapiens, UniProt P41595). Type of assay: cell membranes, CHO-K1, Membrane. Note: in other assays of this panel Not Active means under 50% inhibition at 10 µM.
5-hydroxytryptamine receptor 2B, sequence (P41595 whole entry): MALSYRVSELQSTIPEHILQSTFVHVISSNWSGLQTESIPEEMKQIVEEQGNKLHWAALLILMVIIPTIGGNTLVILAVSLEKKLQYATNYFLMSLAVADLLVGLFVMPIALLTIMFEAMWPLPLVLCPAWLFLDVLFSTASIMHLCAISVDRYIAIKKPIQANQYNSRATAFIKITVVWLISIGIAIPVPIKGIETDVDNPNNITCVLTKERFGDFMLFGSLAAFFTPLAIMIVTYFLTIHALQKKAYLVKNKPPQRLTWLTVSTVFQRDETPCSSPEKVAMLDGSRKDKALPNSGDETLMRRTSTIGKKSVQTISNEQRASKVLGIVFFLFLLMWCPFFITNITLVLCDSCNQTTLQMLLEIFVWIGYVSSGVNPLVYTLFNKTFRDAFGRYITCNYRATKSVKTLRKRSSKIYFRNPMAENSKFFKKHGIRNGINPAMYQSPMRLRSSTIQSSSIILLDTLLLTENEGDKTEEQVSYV
Assay [5] has as its target Delta-type opioid receptor (Homo sapiens, UniProt P41143). The format is cell membranes, HEK293, Membrane. The settings on record: hek293. Note: in other assays of this panel Not Active means under 50% inhibition at 10 µM.
Assay [6] has as its target Receptor tyrosine-protein kinase erbB-2 (Homo sapiens, UniProt P04626). The assay is described as follows: biochemical. Type of assay: cell-based, Insect cells. The settings on record: insect cells.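 Note: inhibition of HER2 kinase enzyme activity, measured with Poly(Glu:Tyr) as the phosphorylation substrate; in other assays of this panel Not Active means under 50% inhibition at 10 µM.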
Assay [7] concerns the target Epidermal growth factor receptor (Homo sapiens, UniProt P00533). In words: DRUGMATRIX: Protein Tyrosine Kinase, EGF Receptor enzyme inhibition (substrate: Poly(Glu:Tyr)). The format is cell-based, Insect cells. The settings on record: insect cells; Not Active = under 50% inhibition at 10 µM.
Assay [8] concerns the target Beta-1 adrenergic receptor (Homo sapiens, UniProt P08588). In words: DRUGMATRIX: Adrenergic beta1 radioligand binding (ligand: [125I] Cyanopindolol). The format is cell membranes, CHO-K1, Membrane. The settings on record: cho-k1; Not Active = under 50% inhibition at 10 µM.
For assay [9], the target named is Prostaglandin G/H synthase 1 (Homo sapiens, UniProt P23219). The assay is described as follows: biochemical. Type of assay: tissue-based, Platelet. The settings on record: platelet.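 Note: inhibition of COX-1 enzyme activity, with arachidonic acid supplied as substrate; in other assays of this panel Not Active means under 50% inhibition at 10 µM.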
Prostaglandin G/H synthase 1, sequence (P23219 whole entry): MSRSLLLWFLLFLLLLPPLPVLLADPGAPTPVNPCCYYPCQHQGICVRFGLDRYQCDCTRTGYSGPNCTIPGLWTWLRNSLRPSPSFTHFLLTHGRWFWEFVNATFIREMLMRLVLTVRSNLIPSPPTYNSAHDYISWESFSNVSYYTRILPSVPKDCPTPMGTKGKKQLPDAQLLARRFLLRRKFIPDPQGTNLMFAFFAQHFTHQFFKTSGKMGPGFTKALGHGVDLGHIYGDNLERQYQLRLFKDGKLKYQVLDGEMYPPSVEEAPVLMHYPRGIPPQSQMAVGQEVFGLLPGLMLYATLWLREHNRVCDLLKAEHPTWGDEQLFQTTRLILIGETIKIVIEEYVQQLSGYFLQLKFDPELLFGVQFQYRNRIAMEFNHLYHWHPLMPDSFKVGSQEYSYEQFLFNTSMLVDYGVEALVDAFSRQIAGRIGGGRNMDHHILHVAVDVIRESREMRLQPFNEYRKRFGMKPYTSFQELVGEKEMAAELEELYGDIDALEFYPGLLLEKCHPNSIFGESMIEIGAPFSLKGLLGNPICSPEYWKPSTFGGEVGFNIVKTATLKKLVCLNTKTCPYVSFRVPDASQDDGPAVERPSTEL
Assay [10] concerns the target T3, Alpha-1A adrenergic receptor (Rattus norvegicus, UniProt P43140).
T3 sequence (P43140 whole entry): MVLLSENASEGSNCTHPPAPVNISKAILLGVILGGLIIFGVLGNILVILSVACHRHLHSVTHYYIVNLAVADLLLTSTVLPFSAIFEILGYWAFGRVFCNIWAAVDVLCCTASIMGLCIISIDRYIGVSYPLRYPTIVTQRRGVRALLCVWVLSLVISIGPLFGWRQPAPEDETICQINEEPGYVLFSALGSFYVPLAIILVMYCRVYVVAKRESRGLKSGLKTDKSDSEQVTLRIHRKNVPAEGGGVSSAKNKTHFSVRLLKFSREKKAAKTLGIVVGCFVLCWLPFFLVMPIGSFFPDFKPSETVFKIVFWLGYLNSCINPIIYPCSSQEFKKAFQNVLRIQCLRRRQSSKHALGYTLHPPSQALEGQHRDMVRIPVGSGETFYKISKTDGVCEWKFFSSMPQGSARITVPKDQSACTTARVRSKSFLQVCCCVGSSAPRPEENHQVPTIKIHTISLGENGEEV
In words: DRUGMATRIX: Alpha-1A adrenergic receptor radioligand binding (ligand: prazosin). The format is cell membranes, Wistar, Submaxillary gland, Membrane. The settings on record: Not Active = under 50% inhibition at 10 µM.

Assay [11] addresses Glycine receptor (Rattus norvegicus, UniProt P22771+P24524+P07727+P20781). The format is cell membranes, Wistar, Spinal cord, Membrane.

Epidermal growth factor receptor, sequence (P00533 whole entry): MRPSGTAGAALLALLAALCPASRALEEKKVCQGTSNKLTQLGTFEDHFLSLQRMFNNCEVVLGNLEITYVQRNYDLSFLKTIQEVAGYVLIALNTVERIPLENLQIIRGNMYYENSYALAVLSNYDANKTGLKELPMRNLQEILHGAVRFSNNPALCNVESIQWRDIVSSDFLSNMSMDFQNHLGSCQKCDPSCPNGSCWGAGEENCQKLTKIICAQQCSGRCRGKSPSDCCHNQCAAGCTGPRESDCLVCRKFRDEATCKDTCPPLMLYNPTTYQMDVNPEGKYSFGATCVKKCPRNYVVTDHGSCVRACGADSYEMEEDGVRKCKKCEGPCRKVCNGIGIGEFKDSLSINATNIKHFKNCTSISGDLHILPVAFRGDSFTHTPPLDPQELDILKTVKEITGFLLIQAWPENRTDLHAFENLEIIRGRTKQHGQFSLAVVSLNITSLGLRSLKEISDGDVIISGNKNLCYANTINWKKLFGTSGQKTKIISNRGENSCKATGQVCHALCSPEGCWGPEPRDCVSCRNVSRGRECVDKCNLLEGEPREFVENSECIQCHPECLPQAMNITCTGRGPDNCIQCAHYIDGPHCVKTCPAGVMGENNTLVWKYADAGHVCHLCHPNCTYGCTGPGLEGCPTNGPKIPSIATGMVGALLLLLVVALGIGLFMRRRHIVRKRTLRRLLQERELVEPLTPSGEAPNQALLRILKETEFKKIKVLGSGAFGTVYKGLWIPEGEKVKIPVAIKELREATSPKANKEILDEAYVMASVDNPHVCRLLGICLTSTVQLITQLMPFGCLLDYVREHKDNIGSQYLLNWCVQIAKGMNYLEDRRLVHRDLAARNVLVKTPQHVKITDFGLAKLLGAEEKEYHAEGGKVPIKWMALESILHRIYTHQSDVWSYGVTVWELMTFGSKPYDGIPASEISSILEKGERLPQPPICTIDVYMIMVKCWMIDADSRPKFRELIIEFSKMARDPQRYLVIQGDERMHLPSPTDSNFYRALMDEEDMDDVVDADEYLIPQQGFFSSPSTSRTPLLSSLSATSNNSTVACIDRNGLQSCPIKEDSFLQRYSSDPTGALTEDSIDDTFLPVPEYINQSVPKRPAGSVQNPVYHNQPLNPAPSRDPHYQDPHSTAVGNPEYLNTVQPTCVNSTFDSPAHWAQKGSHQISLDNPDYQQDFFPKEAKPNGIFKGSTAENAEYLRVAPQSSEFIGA
Receptor tyrosine-protein kinase erbB-2, sequence (P04626 whole entry): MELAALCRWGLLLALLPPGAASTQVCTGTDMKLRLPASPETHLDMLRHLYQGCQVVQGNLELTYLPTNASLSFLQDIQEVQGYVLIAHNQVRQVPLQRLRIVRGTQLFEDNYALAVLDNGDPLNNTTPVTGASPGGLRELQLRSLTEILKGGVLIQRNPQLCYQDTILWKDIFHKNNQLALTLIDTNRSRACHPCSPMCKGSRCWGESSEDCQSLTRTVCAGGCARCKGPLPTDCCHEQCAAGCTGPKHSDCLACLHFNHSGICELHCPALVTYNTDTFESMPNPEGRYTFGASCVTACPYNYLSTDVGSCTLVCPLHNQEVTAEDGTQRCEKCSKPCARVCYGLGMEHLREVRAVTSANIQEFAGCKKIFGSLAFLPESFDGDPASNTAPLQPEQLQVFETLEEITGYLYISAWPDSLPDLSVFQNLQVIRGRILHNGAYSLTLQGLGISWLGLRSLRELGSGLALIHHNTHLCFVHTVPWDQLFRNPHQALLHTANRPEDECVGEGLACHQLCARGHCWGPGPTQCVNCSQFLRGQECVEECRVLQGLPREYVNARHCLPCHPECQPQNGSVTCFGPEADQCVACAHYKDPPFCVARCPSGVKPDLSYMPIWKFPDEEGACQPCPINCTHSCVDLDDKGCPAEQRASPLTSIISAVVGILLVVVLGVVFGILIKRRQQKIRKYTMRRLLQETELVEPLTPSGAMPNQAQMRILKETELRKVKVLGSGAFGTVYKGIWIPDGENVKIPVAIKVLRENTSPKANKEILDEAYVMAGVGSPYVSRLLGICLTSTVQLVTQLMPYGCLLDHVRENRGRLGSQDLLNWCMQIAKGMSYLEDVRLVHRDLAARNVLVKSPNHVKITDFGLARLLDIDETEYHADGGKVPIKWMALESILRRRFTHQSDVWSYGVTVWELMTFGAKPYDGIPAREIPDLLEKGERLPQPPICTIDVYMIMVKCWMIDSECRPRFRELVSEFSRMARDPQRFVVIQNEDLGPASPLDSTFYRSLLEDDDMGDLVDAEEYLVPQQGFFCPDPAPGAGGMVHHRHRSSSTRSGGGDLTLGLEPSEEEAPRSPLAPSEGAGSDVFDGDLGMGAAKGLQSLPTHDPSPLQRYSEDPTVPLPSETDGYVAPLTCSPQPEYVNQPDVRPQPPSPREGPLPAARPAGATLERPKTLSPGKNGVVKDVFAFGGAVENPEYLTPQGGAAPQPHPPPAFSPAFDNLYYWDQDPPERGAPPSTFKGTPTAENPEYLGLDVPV
Delta-type opioid receptor, sequence (P41143 whole entry): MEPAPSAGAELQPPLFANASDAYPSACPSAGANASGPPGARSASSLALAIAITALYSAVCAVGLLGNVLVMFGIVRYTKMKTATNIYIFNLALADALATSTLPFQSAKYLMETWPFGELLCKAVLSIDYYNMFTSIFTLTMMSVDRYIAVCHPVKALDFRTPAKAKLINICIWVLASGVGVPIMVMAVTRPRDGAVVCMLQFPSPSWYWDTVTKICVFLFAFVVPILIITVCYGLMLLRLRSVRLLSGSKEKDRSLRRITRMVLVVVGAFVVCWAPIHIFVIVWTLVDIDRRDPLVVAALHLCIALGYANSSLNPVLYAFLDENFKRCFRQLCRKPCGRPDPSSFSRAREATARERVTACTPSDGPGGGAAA
Beta-1 adrenergic receptor, sequence (P08588 whole entry): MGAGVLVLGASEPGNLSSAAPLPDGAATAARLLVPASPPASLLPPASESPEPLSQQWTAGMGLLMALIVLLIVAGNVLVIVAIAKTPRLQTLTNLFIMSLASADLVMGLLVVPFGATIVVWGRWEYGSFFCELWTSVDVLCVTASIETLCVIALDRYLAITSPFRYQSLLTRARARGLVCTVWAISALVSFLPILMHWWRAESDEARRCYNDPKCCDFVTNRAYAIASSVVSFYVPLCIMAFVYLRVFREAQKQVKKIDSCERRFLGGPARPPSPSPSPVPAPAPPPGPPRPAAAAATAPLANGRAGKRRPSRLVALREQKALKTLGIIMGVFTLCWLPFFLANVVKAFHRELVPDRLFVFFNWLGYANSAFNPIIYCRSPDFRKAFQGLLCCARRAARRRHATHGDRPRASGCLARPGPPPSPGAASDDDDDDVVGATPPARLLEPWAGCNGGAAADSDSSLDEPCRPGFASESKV

One may read the IC50 as the concentration that inhibits the measured activity by half. One may read the Ki as the dissociation constant of the complex between target and ligand, obtained from inhibition or displacement. Turning to `CC(C)(S)[C@@H](N)C(=O)O` [PENICILLAMINE], the IC50 result in assay [1], in assay [2], in assay [3], in assay [4] (cho-k1), in assay [5] and in assay [6] was “Not Active” throughout. The IC50 result in [7], in [8], in [9], in assay [10] and in assay [11] was “Not Active” in each case. The Ki result in assay [3] is given as “Not Active”.
On to `CC(=O)CCCCn1c(=O)c2c(ncn2C)n(C)c1=O` [PENTOXIFYLLINE], for which the IC50 result in assay [1], in assay [2], in assay [3], in [4] (cho-k1), in [5] and in [6] was “Not Active” in each case. In addition, the IC50 entry in assay [7], in assay [8], in assay [9], in assay [10] and in assay [11] was “Not Active” each time. Further, the Ki result in assay [3] is recorded as “Not Active”.
Consider `O=C1NC(=O)C(c2ccccc2)(c2ccccc2)N1` [PHENYTOIN], for which the IC50 result in [1], in [2], in assay [3], in [4] (cho-k1), in assay [5] and in assay [6] was “Not Active” in each case. In addition, the IC50 entry in assay [7], in [8], in assay [9], in assay [10] and in assay [11] was “Not Active” throughout. Further, in assay [3], the Ki entry is “Not Active”.
For the compound `CNC(=O)Oc1ccc2c(c1)[C@]1(C)CCN(C)[C@@H]1N2C` [PHYSOSTIGMINE], the IC50 result in [1], in [2], in [3], in [4] (cho-k1), in assay [5] and in [6] was “Not Active” in each case. Besides, the IC50 entry in assay [7], in assay [8], in assay [9], in assay [10] and in assay [11] was “Not Active” each time. Also, the Ki entry in [3] is “Not Active”.
Take `C=C(C)[C@@H]1[C@H]2OC(=O)[C@@H]1[C@]1(O)C[C@H]3O[C@]34C(=O)O[C@H]2[C@]14C` [PICROTOXININ]: the IC50 result in assay [1], in [2], in [3], in assay [4] (cho-k1), in assay [5] and in assay [6] was “Not Active” each time. In addition, the IC50 entry in assay [7], in assay [8], in assay [9], in assay [10] and in assay [11] was “Not Active” each time. In addition, in [3], the Ki result was “Not Active”.
For `CCC1(c2ccccc2)C(=O)NCNC1=O` [PRIMIDONE], the IC50 result in assay [1], in assay [2], in [3], in assay [4] (cho-k1), in assay [5] and in [6] was “Not Active” each time. Further, the IC50 result in assay [7], in assay [8], in assay [9], in [10] and in assay [11] was “Not Active” each time. Moreover, the Ki entry in [3] was “Not Active”.
For `CCCc1cc(=O)[nH]c(=S)[nH]1` [PROPYLTHIOURACIL], the IC50 result in assay [1], in [2], in assay [3], in [4] (cho-k1), in assay [5] and in assay [6] was “Not Active” in each case. Also, the half-maximal inhibitory concentration (IC50) entry in assay [7], in assay [8], in [9], in [10] and in assay [11] was “Not Active” each time. The Ki result in [3] is “Not Active”.
Turning to `COc1ccc(CN(CCN(C)C)c2ccccn2)cc1` [PYRILAMINE], the IC50 result in assay [1] is “Not Active”; in assay [2] it was “Not Active”; in assay [3], “Not Active”; in assay [4] (read-out: IC50), 2.79 µM; in [5], “Not Active”; in assay [6], “Not Active”. For the same compound, the IC50 result in assay [7], in assay [8], in [9], in assay [10] and in [11] was “Not Active” each time. The Ki entry in [3] was “Not Active”; in assay [4] (read-out: Ki) it was 1.77 µM.

The record behind these values is ChEMBL document CHEMBL1909046, “DrugMatrix in vitro pharmacology data”.
